Reference: PubChem BioAssay (NCI)
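Growth conditions: 96-well plates. Treatment: test compound, 48 hours, 5 concentrations. Analysis: linear interpolation between bracketing concentrations; unreached endpoints set to highest concentration. TGI marks complete inhibition of growth.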

Tests used:
Assay in all cases: NCI tumour cell line growth inhibition, 48 h
NCI-H522 lung = tested on: NCI-H522 lung
HT29 colon = tested on: HT29 colon
CCRF-CEM leukemia = tested on: CCRF-CEM leukemia
LOX IMVI melanoma = tested on: LOX IMVI melanoma
SR leukemia = tested on: SR leukemia
HOP-62 NSCLC = tested on: HOP-62 NSCLC
SW-620 colon = tested on: SW-620 colon
T-47D breast = tested on: T-47D breast
HOP-92 NSCLC = tested on: HOP-92 NSCLC
MDA-MB-435 = tested on: MDA-MB-435
OVCAR-4 ovarian = tested on: OVCAR-4 ovarian
MALME-3M melanoma = tested on: MALME-3M melanoma
DU-145 prostate = tested on: DU-145 prostate
UACC-257 melanoma = tested on: UACC-257 melanoma
COLO 205 colon = tested on: COLO 205 colon
MDA-MB-231 breast = tested on: MDA-MB-231 breast
BT-549 breast = tested on: BT-549 breast
SK-MEL-2 melanoma = tested on: SK-MEL-2 melanoma
M14 melanoma = tested on: M14 melanoma
NCI-H460 lung = tested on: NCI-H460 lung
SNB-75 CNS = tested on: SNB-75 CNS
OVCAR-5 ovarian = tested on: OVCAR-5 ovarian
HCT-15 colon = tested on: HCT-15 colon
EKVX NSCLC = tested on: EKVX NSCLC
MOLT-4 leukemia = tested on: MOLT-4 leukemia
HS 578T breast = tested on: HS 578T breast
HCC-2998 colon = tested on: HCC-2998 colon
TK-10 renal = tested on: TK-10 renal
SF-295 CNS = tested on: SF-295 CNS
HCT-116 colon = tested on: HCT-116 colon
SK-OV-3 ovarian = tested on: SK-OV-3 ovarian
KM12 colon = tested on: KM12 colon
OVCAR-8 ovarian = tested on: OVCAR-8 ovarian
SK-MEL-5 melanoma = tested on: SK-MEL-5 melanoma
SN12C renal = tested on: SN12C renal
U251 CNS = tested on: U251 CNS
SK-MEL-28 melanoma = tested on: SK-MEL-28 melanoma
PC-3 prostate = tested on: PC-3 prostate
MCF7 breast = tested on: MCF7 breast
MDA-N = tested on: MDA-N
RPMI-8226 leukemia = tested on: RPMI-8226 leukemia
UO-31 renal = tested on: UO-31 renal
HL-60(TB) leukemia = tested on: HL-60(TB) leukemia
NCI-H226 lung = tested on: NCI-H226 lung
IGROV1 ovarian = tested on: IGROV1 ovarian
K-562 leukemia = tested on: K-562 leukemia
UACC-62 melanoma = tested on: UACC-62 melanoma
ACHN renal = tested on: ACHN renal
SF-539 CNS = tested on: SF-539 CNS
OVCAR-3 ovarian = tested on: OVCAR-3 ovarian
SF-268 CNS = tested on: SF-268 CNS
NCI/ADR-RES ovarian = tested on: NCI/ADR-RES ovarian
786-0 renal = tested on: 786-0 renal
SNB-19 CNS = tested on: SNB-19 CNS
NCI-H23 lung = tested on: NCI-H23 lung
RXF 393 renal = tested on: RXF 393 renal
A549 NSCLC = tested on: A549 NSCLC
CAKI-1 renal = tested on: CAKI-1 renal

Measured: TGI

COC(=O)c1cc(C(=CCC[C@H]2CC[C@@]3(C)C(CCC4C3CC[C@@]3(C)C4CC[C@@H]3C(C)CCCC(C)C)C2)c2cc(Cl)c(OC(=O)c3ccccc3)c(C(=O)OC)c2)cc(Cl)c1OC(=O)c1ccccc1 (stereo partly drawn)
> 10 µM: NCI-H522 lung | HT29 colon | CCRF-CEM leukemia | LOX IMVI melanoma | SR leukemia | HOP-62 NSCLC | SW-620 colon | T-47D breast | HOP-92 NSCLC | MDA-MB-435 | OVCAR-4 ovarian | MALME-3M melanoma | DU-145 prostate | UACC-257 melanoma | COLO 205 colon | MDA-MB-231 breast | BT-549 breast | SK-MEL-2 melanoma | M14 melanoma | NCI-H460 lung | SNB-75 CNS | OVCAR-5 ovarian | HCT-15 colon | EKVX NSCLC | MOLT-4 leukemia | HS 578T breast | HCC-2998 colon | TK-10 renal | SF-295 CNS | HCT-116 colon | SK-OV-3 ovarian | KM12 colon | OVCAR-8 ovarian | SK-MEL-5 melanoma | SN12C renal | U251 CNS | SK-MEL-28 melanoma | PC-3 prostate | MCF7 breast | MDA-N | RPMI-8226 leukemia | UO-31 renal | HL-60(TB) leukemia | NCI-H226 lung | IGROV1 ovarian | K-562 leukemia | UACC-62 melanoma | ACHN renal | SF-539 CNS | OVCAR-3 ovarian | SF-268 CNS | NCI/ADR-RES ovarian | 786-0 renal | SNB-19 CNS | NCI-H23 lung | RXF 393 renal | A549 NSCLC | CAKI-1 renal
